pIC50: −log10 of the molar value.

EZH2, sequence (Q15910 whole entry): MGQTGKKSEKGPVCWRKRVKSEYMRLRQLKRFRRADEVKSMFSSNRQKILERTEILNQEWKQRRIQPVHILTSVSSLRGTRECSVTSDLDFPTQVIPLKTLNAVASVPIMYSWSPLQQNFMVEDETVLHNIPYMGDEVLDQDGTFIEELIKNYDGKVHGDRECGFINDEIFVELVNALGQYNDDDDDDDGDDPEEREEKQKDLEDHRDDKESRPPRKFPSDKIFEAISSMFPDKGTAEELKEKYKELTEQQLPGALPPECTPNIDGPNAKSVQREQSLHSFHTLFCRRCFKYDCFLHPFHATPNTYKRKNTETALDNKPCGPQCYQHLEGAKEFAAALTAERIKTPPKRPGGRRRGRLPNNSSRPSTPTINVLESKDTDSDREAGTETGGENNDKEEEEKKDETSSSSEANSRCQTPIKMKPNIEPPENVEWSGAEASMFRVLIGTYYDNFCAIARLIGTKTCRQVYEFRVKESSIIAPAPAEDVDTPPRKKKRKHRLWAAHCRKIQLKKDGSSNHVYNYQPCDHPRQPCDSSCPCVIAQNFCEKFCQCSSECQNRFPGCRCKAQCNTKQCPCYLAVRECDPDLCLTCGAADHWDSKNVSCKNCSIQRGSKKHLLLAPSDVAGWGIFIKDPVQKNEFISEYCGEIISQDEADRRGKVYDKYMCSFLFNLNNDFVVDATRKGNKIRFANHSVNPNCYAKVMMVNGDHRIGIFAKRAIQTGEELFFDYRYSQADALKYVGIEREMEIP
EZH2, sequence (O75530 whole entry partner): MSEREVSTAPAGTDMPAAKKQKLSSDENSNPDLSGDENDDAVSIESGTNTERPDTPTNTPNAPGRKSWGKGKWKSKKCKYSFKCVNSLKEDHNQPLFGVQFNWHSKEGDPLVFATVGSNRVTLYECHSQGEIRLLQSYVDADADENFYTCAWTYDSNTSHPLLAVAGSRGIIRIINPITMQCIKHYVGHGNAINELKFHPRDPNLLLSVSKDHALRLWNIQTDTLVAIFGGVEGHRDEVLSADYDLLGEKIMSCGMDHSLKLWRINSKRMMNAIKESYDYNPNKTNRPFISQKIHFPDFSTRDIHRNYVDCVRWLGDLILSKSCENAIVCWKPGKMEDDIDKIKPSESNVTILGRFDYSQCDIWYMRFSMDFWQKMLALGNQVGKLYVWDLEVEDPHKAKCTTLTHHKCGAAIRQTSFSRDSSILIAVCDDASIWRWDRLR
EZH2, sequence (Q15022 whole entry partner): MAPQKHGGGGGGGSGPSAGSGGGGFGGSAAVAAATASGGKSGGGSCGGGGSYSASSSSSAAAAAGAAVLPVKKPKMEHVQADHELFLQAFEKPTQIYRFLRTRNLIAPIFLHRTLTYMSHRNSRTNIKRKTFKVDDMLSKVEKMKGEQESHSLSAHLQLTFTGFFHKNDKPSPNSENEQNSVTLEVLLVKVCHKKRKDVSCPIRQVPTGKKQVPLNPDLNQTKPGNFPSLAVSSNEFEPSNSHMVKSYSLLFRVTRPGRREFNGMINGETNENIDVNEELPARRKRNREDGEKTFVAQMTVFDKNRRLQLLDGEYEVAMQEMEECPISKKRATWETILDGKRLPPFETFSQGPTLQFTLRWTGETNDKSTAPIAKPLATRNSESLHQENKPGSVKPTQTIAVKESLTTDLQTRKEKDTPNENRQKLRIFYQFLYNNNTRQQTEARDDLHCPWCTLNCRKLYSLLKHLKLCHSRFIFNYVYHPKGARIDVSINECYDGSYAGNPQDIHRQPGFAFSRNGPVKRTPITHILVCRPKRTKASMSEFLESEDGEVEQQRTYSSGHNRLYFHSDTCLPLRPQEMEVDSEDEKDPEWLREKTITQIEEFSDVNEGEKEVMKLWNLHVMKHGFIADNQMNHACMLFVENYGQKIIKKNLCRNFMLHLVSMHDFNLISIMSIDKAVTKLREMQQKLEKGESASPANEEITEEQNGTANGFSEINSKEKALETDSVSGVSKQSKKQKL

The assay deals with EZH2 (Homo sapiens, UniProt Q15910). As to the kind of experiment: EZH2 assay: rPRC2 with biotinylated oligonucleosome substrates and 3H SAM, FlashPlate scintillation counting, IC50. The conditions noted are these: rPRC2, biotinylated oligonucleosome substrates, 3H SAM; read-out: EZH2 IC50. The format is biochemical. How it is done:
Assays were carried out by mixing rPRC2 together with biotinylated oligonucleosome substrates in the presence of the radio-labeled enzyme co-factor, S-adenosyl-L-methionine (^3H SAM) (Perkin Elmer) and monitoring the enzymatically mediated transfer of tritiated methyl groups from ^3H SAM to histone lysine residues. The amount of resulting tritated methylhistone product was measured by first capturing the biotinylated oligonuclesomes in streptavidin (SAV) coated FlashPlates (Perkin Elmer), followed by a wash step to remove un-reacted ^3H SAM, and then counting on a TopCount NXT 384 well plate scintillation counter (Perkin Elmer). The final assay conditions for EZH2 were as follows: 50 mM Tris Buffer pH 8.5, 1 mM DTT, 69 uM Brij-35 detergent, 5.0 mM MgCl2, 0.1 mg/mL BSA, 0.2 uM ^3H SAM, 0.2 uM biotinylated oligonucleosomes, 3.6 uM H3K27me3 peptide and 2 nM EZH2.
Compound IC50 measurements were obtained as follows: Compounds were first dissolved in 100% DMSO as 10 mM stock solutions. […] A 12.5 uL volume of the HMT enzyme, H3K27me3 peptide and oligonucleosome substrate in assay buffer was added to each well of the assay plate using a Multidrop Combi (ThermoFisher). Compounds were pre-incubated with the enzyme for 20 min, followed by initiation of the methyltransferase reaction by addition of 12.5 uL of 3H SAM in assay buffer (final volume=25 uL). The final concentrations of compounds ranged from a top default concentration of 80 uM down to 0.16 uM in ten 2-fold dilution steps. Reactions were carried out for 60 minutes and quenched with 20 uL per well of 1.96 mM SAH, 50 mM Tris PH 8.5, 200 mM EDTA. Stopped reactions were transferred to SAV coated Flashplates (Perkin Elmer), incubated for 120 min, washed with a plate washer, and then read on the TopCount NXT (1.0 min/well) to measure the amount of methylhistone product formed during the reaction. The amount of methylhistone product was compared with the amount of product formed in the 0% and 100% inhibition control wells allowing the calculation of % Inhibition in the presence of the individual compounds at various concentrations. IC50's were computed using a 4 parameter fit non-linear curve fitting software package (XLFIT, part of the database package, ActivityBase (IDBS)) where the four parameters were IC50, Hill slope, pre-transitional baseline (0% INH), and post-transitional baseline (100% INH); with the latter two parameters being fixed to zero and 100%, respectively, by default.
Turning to `CN(C)C(=O)Cc1cccc(Oc2ccc(C(=O)NC3CC(C)(C)NC(C)(C)C3)cc2Cl)c1C#N` [Compound I-464], the negative-log IC50 (pIC50) (in general, the IC50 on a negative log10 scale, so that one unit is a factor of ten) was under 4.10.
In the case of `CC1(C)CC(NC(=O)c2ccc(Oc3cccc(-c4ccc(N5CCNCC5)nc4)c3C#N)c(Cl)c2)CC(C)(C)N1` [Compound I-549], the pIC50 was over 5.30.
With `CC1(C)CC(NC(=O)c2ccc(Oc3c(Cl)cccc3C#N)cc2)CC(C)(C)N1` [Compound I-244] the figure was 4.10 to 4.70.
The result for `CC1(C)CC(NC(=O)c2ccc(Oc3ccccc3C#N)c(-c3ccccc3)c2)CC(C)(C)N1` [Compound I-197] reads over 5.30; that for `CC(=O)Nc1cccc(Oc2ccc(C(=O)NC3CC(C)(C)NC(C)(C)C3)cc2)c1` [Compound I-26, 4-(3-Acetamidophenoxy)-N-(2,2,6,6-tetramethylpiperidin-4-yl)benzamide], 4.10 to 4.70.
For `CC1(C)CC(NC(=O)c2ccc(Oc3ccccc3OCc3cccnc3)cc2)CC(C)(C)N1` [Compound I-232], the pIC50 is 4.10 to 4.70.
Consider `CN(C)CCNC(=O)c1ccc(Oc2ccccc2)cc1` [Compound I-132], for which the pIC50 is under 4.10.
With `Cc1ccc(Oc2ccc(C(=O)NC3CC(C)(C)NC(C)(C)C3)cc2)c(C#N)c1` [Compound I-156] the figure was under 4.10; with `CC1(C)CC(NC(=O)c2ccc(COc3cccnc3)cc2)CC(C)(C)N1` [Compound I-36], 4.10 to 4.70.
As to `CC1(C)CC(NC(=O)c2ccc(Oc3ccccc3-c3nccs3)c(Cl)c2)CC(C)(C)N1` [Compound I-278], the negative-log IC50 (pIC50) was over 5.30.
With `CC1(C)CC(NC(=O)c2ccc(Oc3cccc(OCc4ccccc4)c3)cc2)CC(C)(C)N1` [Compound I-168] the figure was 4.10 to 4.70; with `CC1(C)CC(NC(=O)c2ccc(OCc3cccc(F)c3)cc2)CC(C)(C)N1` [Compound I-88], under 4.10; with `COCCNC(=O)CCc1cccc(Oc2ccc(C(=O)NC3CC(C)(C)NC(C)(C)C3)cc2Cl)c1C#N` [Compound I-554], over 5.30.
Take `COc1ccc(OCc2ccc(C(=O)NC3CC(C)(C)NC(C)(C)C3)cc2)cc1` [Compound I-63]: the pIC50 was 4.10 to 4.70.
For the compound `COC(=O)c1cccc(COc2ccc(C(=O)NC3CC(C)(C)NC(C)(C)C3)cc2)c1` [Compound I-53], the negative logarithm of the IC50 (pIC50) was 4.10 to 4.70.
On to `CC1(C)CC(NC(=O)c2ccc(Oc3ccccc3)nc2)CC(C)(C)N1` [Compound I-64, 6-Phenoxy-N-(2,2,6,6-tetramethylpiperidin-4-yl)nicotinamide], for which the negative-log IC50 (pIC50) was 4.10 to 4.70.
For `CC1(C)CC(NC(=O)c2ccc(CNc3ccccc3)cc2)CC(C)(C)N1` [Compound I-106, 4-((Phenylamino)methyl)-N-(2,2,6,6-tetramethylpiperidin-4-yl)benzamide], the negative-log IC50 (pIC50) is under 4.10.
Consider `CC1(C)CC(NC(=O)c2ccc(Oc3ccc4[nH]ccc4c3)cc2)CC(C)(C)N1` [Compound I-82], for which the pIC50 was under 4.10.
The result for `CC1(C)CC(NC(=O)c2ccc(S(=O)(=O)c3ccccc3)cc2)CC(C)(C)N1` [Compound I-357] reads under 4.10; that for `CC1(C)CC(NC(=O)c2ccc(Oc3cccc(C(F)(F)F)c3C#N)c(Cl)c2)CC(C)(C)N1` [Compound I-311], over 5.30.
The result for `CC1(C)CC(NC(=O)c2ccc(Sc3ccccc3)cc2)CC(C)(C)N1` [Compound I-50] reads 4.10 to 4.70; that for `CC1(C)CC(NC(=O)c2ccc(Oc3cccc(-c4cccnc4N)c3C#N)c(Cl)c2)CC(C)(C)N1` [Compound I-361], 4.70 to 5.30; that for `CC1(C)CC(NC(=O)c2ccc(C(=O)Nc3cccc(Br)c3)cc2)CC(C)(C)N1` [Compound I-161], under 4.10.
In the case of `CCN(C(=O)c1ccc(Oc2ccccc2C#N)c(Cl)c1)C1CC(C)(C)NC(C)(C)C1` [Compound I-341], the negative logarithm of the IC50 (pIC50) is under 4.10.
Turning to `CC1(C)CC(NC(=O)c2ccc(Oc3cccc(-c4ccnnc4)c3C#N)c(Cl)c2)CC(C)(C)S1` [Compound I-517], the negative logarithm of the IC50 (pIC50) was 4.70 to 5.30.
With `CC1(C)CC(NC(=O)c2ccc(COc3cccc(Br)c3)cc2)CC(C)(C)N1` [Compound I-8] the figure was 4.70 to 5.30; with `CC1(C)CC(NC(=O)c2ccc(Oc3cccc4c(N)nccc34)cc2)CC(C)(C)N1` [Compound I-316], 4.10 to 4.70.
With `N#Cc1c(Oc2ccc(C(=O)NC3CCNCC3)cc2Cl)cccc1-c1cn[nH]c1` [Compound I-373], the negative logarithm of the IC50 (pIC50) was under 4.10.
For `CC1(C)CC(NC(=O)c2ccc(COc3cccc(-c4ccc(NC(=O)C5CC5)nc4)c3)cc2)CC(C)(C)N1` [Compound I-153], the pIC50 was 4.10 to 4.70.
With `CC1(C)CC(NC(=O)c2ccc(Oc3ccccc3C#N)c(Cl)c2)CC(C)(C)N1CC(N)=O` [Compound I-452] the figure was under 4.10; with `N#Cc1ccccc1Oc1ccc(C(=O)NC2CCNC(=O)C2)cc1Cl` (stereo not drawn) [Compound I-403], under 4.10; with `Cc1cc(C(=O)NC2CC(C)(C)NC(C)(C)C2)ccc1Oc1cccc(CC#N)c1` [Compound I-345], over 5.30.
Consider `CC1(C)CC(NC(=O)c2ccc(-n3cnc4ccccc43)c(Cl)c2)CC(C)(C)N1` [Compound I-303], for which the pIC50 was under 4.10.
The result for `CC1(C)CC(NC(=O)c2ccc(Oc3ccccc3C#N)c(-c3cn[nH]c3)c2)CC(C)(C)N1` [Compound I-213] reads over 5.30; that for `CC1(C)CC(NC(=O)c2ccc(Oc3cccc(OCC(N)=O)c3C#N)c(Cl)c2)CC(C)(C)N1` [Compound I-487], over 5.30; that for `CC1(C)CC(NC(=O)c2ccc(Oc3ccccc3C#N)c(C(F)(F)F)c2)CC(C)(C)N1` [Compound I-218], over 5.30.
The result for `CN1CCC(NC(=O)c2ccc(Oc3ccccc3C#N)c(Cl)c2)CC1` [Compound I-193] reads under 4.10; that for `CC1(C)CC(NC(=O)c2ccc(COc3ccnc(Cl)c3)cc2)CC(C)(C)N1` [Compound I-66], 4.10 to 4.70; that for `CC1(C)CC(NC(=O)c2ccc(Oc3cccc(C#N)c3)cc2)CC(C)(C)N1` [Compound I-17], 4.70 to 5.30.
Take `CC1(C)CC(NC(=O)c2ccc(-n3ncc4c(Br)cccc43)c(Cl)c2)CC(C)(C)N1` [Compound I-490]: the pIC50 was 4.70 to 5.30.
With `CC1(C)CC(NC(=O)c2ccc(Oc3cccc(NCC(N)=O)c3C#N)c(Cl)c2)CC(C)(C)N1` [Compound I-502] the figure was over 5.30.
With `CC1(C)CC(NC(=O)c2ccc(Oc3ccccc3)cc2O)CC(C)(C)N1` [Compound I-122] the figure was under 4.10.
Turning to `CC1CC(NC(=O)c2ccc(Oc3ccccc3C#N)c(Cl)c2)CC(C)N1` (stereo not drawn) [Compound I-467], the negative-log IC50 (pIC50) is 4.10 to 4.70.
With `Cc1ccc(-c2ccccc2Oc2ccc(C(=O)NC3CC(C)(C)NC(C)(C)C3)cc2Cl)cn1` [Compound I-295] the figure was over 5.30.
The result for `CC1(C)CC(NC(=O)c2ccc(Oc3ncccc3C#N)c(Cl)c2)CC(C)(C)N1` [Compound I-249] reads 4.70 to 5.30; that for `CC1(C)CC(NC(=O)c2ccc(Oc3cccc4cccnc34)cc2)CC(C)(C)N1` [Compound I-331], 4.10 to 4.70.
The result for `COc1cc(C(=O)NC2CC(C)(C)NC(C)(C)C2)ccc1COc1cccc(Br)c1` [Compound I-31] reads 4.10 to 4.70; that for `CNC(=O)Cc1cccc(Oc2ccc(C(=O)NC3CC(C)(C)NC(C)(C)C3)cc2Cl)c1C#N` [Compound I-458], over 5.30.
`CC1(C)CC(NC(=O)c2ccc(C3=NCC(=O)Nc4ccccc43)cc2)CC(C)(C)N1` [Compound I-436]: the pIC50 is under 4.10.
The result for `COc1cc(Oc2ccccc2C#N)ccc1C(=O)NC1CC(C)(C)NC(C)(C)C1` [Compound I-191] reads under 4.10.
The result for `CC1(C)CC(NC(=O)c2ccc(Oc3cncc(-c4ccncc4)c3C#N)c(Cl)c2)CC(C)(C)N1` [Compound I-520] reads over 5.30; that for `Cc1ccc(Oc2ccc(C(=O)NC3CC(C)(C)NC(C)(C)C3)cc2)cc1C` [Compound I-87], under 4.10; that for `Cc1ccccc1Oc1ccc(C(=O)NC2CC(C)(C)NC(C)(C)C2)cc1Cl` [Compound I-325], 4.70 to 5.30.
For the compound `CC1(C)CC(NC(=O)c2ccc(COc3cccc(-c4ccc(=O)[nH]c4)c3)cc2)CC(C)(C)N1` [Compound I-65], the negative logarithm of the IC50 (pIC50) was 4.10 to 4.70.
Regarding `CC1(C)CC(C(=O)Nc2ccc(Oc3cccc(-c4cn[nH]c4)c3C#N)c(Cl)c2)CC(C)(C)N1` [Compound I-449], the negative logarithm of the IC50 (pIC50) is 4.70 to 5.30.
As to `CC1(C)CC(NC(=O)c2cccc(Oc3ccccc3)c2)CC(C)(C)N1` [Compound I-94], the negative logarithm of the IC50 (pIC50) was under 4.10.
Consider `CN(C)CCCNC(=O)c1ccc(Oc2ccccc2)cc1` [Compound I-140], for which the pIC50 was under 4.10.

Values taken from patent publication US20130310379A1, “MODULATORS OF METHYL MODIFYING ENZYMES, COMPOSITIONS AND USES THEREOF” (CONSTELLATION PHARMACEUTICALS, priority 2010, published 2013).
